Laboratory results published in article PMC7562955 (Nature Communications, 2020).
“And” between values parts separate entries of the source, which are not always exact repeats. Equal entries are not always repeated. Where two headings read alike, the source gives them in different places.

Assays:
[1] = Pharmacokinetic profiling after oral dose in NZB/W F1 mice; assay type: in vivo, mouse; conditions: for plasma Concentration, individual mouse / concentration at 3 h / concentration at 6 h / concentration at 24 h: 100 mg/kg po; for concentration at 3 h / concentration at 6 h / concentration at 24 h: female, NZB/W F1, mouse, plasma, oral, 100 mg/kg
Protocol: Cpd-7 was orally administered to 35-week-old female NZB/W F1 mice at 100 mg kg^−1 dissolved in 0.5 w/v% Methyl Cellulose 400 Solution (WAKO, Japan). Blood was collected over 24 h from the isoflurane-anesthetized mice via the jugular vein. The plasma samples were separated by centrifugation. Cpd-7 was extracted from the plasma samples by protein precipitation with methanol and measured using LC/MS/MS (HPLC: SHIMADZU CORPORATION, Japan; MS: AB Sciex Pte. Ltd., Japan). The lower limit of quantification was set at 5 ng/mL.

[2] = system: lupus-prone NZB/W F1 mice; assay: Efficacy study in lupus-prone NZB/W F1 mice (proteinuria, survival, kidney histopathology); assay type: in vivo; conditions: for proteinuria (urinary albumin/creatinine ratio), mean / Histological score (glomerular lesion), Mean: n = 6; for Histological score (glomerular lesion), individual mouse: 0–4 scale
Protocol: At the initiation of treatment, mice were randomly divided according to bodyweight and proteinuria level (urinary albumin/creatinine ratio over 300 mg g^−1) and were orally once or twice daily. […] During the treatment, nearly dead individuals were euthanized, then sera and kidneys were collected. In this case, the last known values for urinary protein was carried forward.
Urine protein was quantified by automatic analyzer (BioMajesty ZERO(JCA-ZS050), JEOL Ltd, Japan) with Mouse Urinary Albumin Assay Kit (S-type) (AKRAL-021S, Shibayagi Co.,Ltd., Japan). Urine creatinine levels were measured in the same samples. The urine albumin excretion rate is expressed as the ratio of albumin to creatinine. Time course of proteinuria were analyzed by Dunnett’s multiple-range test.
The both kidneys were fixed in 10% neutral-buffered formalin, embedded in paraffin, sectioned, stained with hematoxylin and eosin (HE) and periodic acid-Schiff (PAS), and examined by light microscopy. Glomerulonephritis was scored on a 0–4 scale, based on the intensity and extent of histopathological changes. A grade of 0 was given to kidney without glomerular lesions; a grade of 1 was given when there was minimal thickening of the mesangium; a grade of 2 was given when there was a noticeable increase in both mesangial and glomerular capillary cellularity; a grade of 3 was given when the preceding conditions were observed, along with superimposed inflammatory exudates and capsular adhesions; and a grade of 4 was given when the obliteration of the glomerular architecture included 70% of glomeruli. These classifications were used to grade 20 glomeruli within one area, and the mean glomerular histopathological score was calculated for each mouse. Data were analyzed by Tukey’s test.

[3] = 100 mg kg−1 po once or twice daily, four weeks

Compound: CCOc1nc(C)c2nc(-c3cncc(F)c3)n(Cc3ccc(CN4C[C@@H]5C[C@H]4CN5C)cc3)c2n1 [Cpd-7]
- plasma Concentration, individual mouse ([1]; 3 h): 3240 ng/mL and 2770 ng/mL
- plasma Concentration, individual mouse ([1]; 6 h): 948 ng/mL and 525 ng/mL
- plasma Concentration, individual mouse ([1]; 24 h): 10 ng/mL and 7.55 ng/mL
- concentration at 3 h ([1]; 3 h, n = 3, read-out: plasma Concentration, Mean): 2890 ng/mL
- concentration at 3 h ([1]; 3 h, read-out: plasma Concentration, individual mouse): 2650 ng/mL
- concentration at 6 h ([1]; 6 h, n = 3, read-out: plasma Concentration, Mean): 710 ng/mL
- concentration at 6 h ([1]; 6 h, read-out: plasma Concentration, individual mouse): 658 ng/mL
- concentration at 24 h ([1]; 24 h, n = 3, read-out: plasma Concentration, Mean): 8.63 ng/mL
- concentration at 24 h ([1]; 24 h, read-out: plasma Concentration, individual mouse): 8.33 ng/mL
- oral availability ([1]; single 100 mg kg−1 po): orally available
- proteinuria (urinary albumin/creatinine ratio), mean ([2]; 100 mg kg-1 po B.I.D, 0 wk): 1719.9
- proteinuria (urinary albumin/creatinine ratio), mean ([2]; 100 mg kg-1 po B.I.D, 1 wk): 7204.5
- proteinuria (urinary albumin/creatinine ratio), mean ([2]; 100 mg kg-1 po B.I.D, 2 wk): 747.0
- proteinuria (urinary albumin/creatinine ratio), mean ([2]; 100 mg kg-1 po B.I.D, 3 wk): 150.9
- proteinuria (urinary albumin/creatinine ratio), mean ([2]; 100 mg kg-1 po B.I.D, 4 wk): 121.0
- proteinuria (urinary albumin/creatinine ratio), mean ([2]; 100 mg kg-1 po Q.D., 0 wk): 1780.7
- proteinuria (urinary albumin/creatinine ratio), mean ([2]; 100 mg kg-1 po Q.D., 1 wk): 10042.5
- proteinuria (urinary albumin/creatinine ratio), mean ([2]; 100 mg kg-1 po Q.D., 2 wk): 9132.2
- proteinuria (urinary albumin/creatinine ratio), mean ([2]; 100 mg kg-1 po Q.D., 3 wk): 6691.2
- proteinuria (urinary albumin/creatinine ratio), mean ([2]; 100 mg kg-1 po Q.D., 4 wk): 3804.5
- glomerular lesion scores vs vehicle ([2]; 100 mg kg−1 once or twice daily): significantly reduced
- death/survival [2, 3]: prevented death in all mice
- proteinuria vs vehicle [2, 3]: significant decrease in proteinuria
- Histological score (glomerular lesion), individual mouse ([2]; B.I.D. 100 mg kg-1): 0 and 1
- Survival rate ([2]; B.I.D. 100 mg kg-1, day 0): 100%
- Survival rate ([2]; B.I.D. 100 mg kg-1, day 1): 100%
- Survival rate ([2]; B.I.D. 100 mg kg-1, day 2): 100%
- Survival rate ([2]; B.I.D. 100 mg kg-1, day 3): 100%
- Survival rate ([2]; B.I.D. 100 mg kg-1, day 4): 100%
- Survival rate ([2]; B.I.D. 100 mg kg-1, day 5): 100%
- Survival rate ([2]; B.I.D. 100 mg kg-1, day 6): 100%
- Survival rate ([2]; B.I.D. 100 mg kg-1, day 7): 100%
- Survival rate ([2]; B.I.D. 100 mg kg-1, day 8): 100%
- Survival rate ([2]; B.I.D. 100 mg kg-1, day 9): 100%
- Survival rate ([2]; B.I.D. 100 mg kg-1, day 10): 100%
- Survival rate ([2]; B.I.D. 100 mg kg-1, day 11): 100%
- Survival rate ([2]; B.I.D. 100 mg kg-1, day 12): 100%
- Survival rate ([2]; B.I.D. 100 mg kg-1, day 13): 100%
- Survival rate ([2]; B.I.D. 100 mg kg-1, day 14): 100%
- Survival rate ([2]; B.I.D. 100 mg kg-1, day 15): 100%
- Survival rate ([2]; B.I.D. 100 mg kg-1, day 16): 100%
- Survival rate ([2]; B.I.D. 100 mg kg-1, day 17): 100%
- Survival rate ([2]; B.I.D. 100 mg kg-1, day 18): 100%
- Survival rate ([2]; B.I.D. 100 mg kg-1, day 19): 100%
- Survival rate ([2]; B.I.D. 100 mg kg-1, day 20): 100%
- Survival rate ([2]; B.I.D. 100 mg kg-1, day 21): 100%
- Survival rate ([2]; B.I.D. 100 mg kg-1, day 22): 100%
- Survival rate ([2]; B.I.D. 100 mg kg-1, day 23): 100%
- Survival rate ([2]; B.I.D. 100 mg kg-1, day 24): 100%
- Survival rate ([2]; B.I.D. 100 mg kg-1, day 25): 100%
- Survival rate ([2]; B.I.D. 100 mg kg-1, day 26): 100%
- Survival rate ([2]; B.I.D. 100 mg kg-1, day 27): 100%
- Survival rate ([2]; B.I.D. 100 mg kg-1, day 28): 100%
- Histological score (glomerular lesion), Mean ([2]; B.I.D. 100 mg kg-1): 0.3333
- Histological score (glomerular lesion), individual mouse ([2]; Q.D. 100 mg kg-1): 0 and 2 and 1 and 3
- Survival rate ([2]; Q.D. 100 mg kg-1, day 0): 100%
- Survival rate ([2]; Q.D. 100 mg kg-1, day 1): 100%
- Survival rate ([2]; Q.D. 100 mg kg-1, day 2): 100%
- Survival rate ([2]; Q.D. 100 mg kg-1, day 3): 100%
- Survival rate ([2]; Q.D. 100 mg kg-1, day 4): 100%
- Survival rate ([2]; Q.D. 100 mg kg-1, day 5): 100%
- Survival rate ([2]; Q.D. 100 mg kg-1, day 6): 100%
- Survival rate ([2]; Q.D. 100 mg kg-1, day 7): 100%
- Survival rate ([2]; Q.D. 100 mg kg-1, day 8): 100%
- Survival rate ([2]; Q.D. 100 mg kg-1, day 9): 100%
- Survival rate ([2]; Q.D. 100 mg kg-1, day 10): 100%
- Survival rate ([2]; Q.D. 100 mg kg-1, day 11): 100%
- Survival rate ([2]; Q.D. 100 mg kg-1, day 12): 100%
- Survival rate ([2]; Q.D. 100 mg kg-1, day 13): 100%
- Survival rate ([2]; Q.D. 100 mg kg-1, day 14): 100%
- Survival rate ([2]; Q.D. 100 mg kg-1, day 15): 100%
- Survival rate ([2]; Q.D. 100 mg kg-1, day 16): 100%
- Survival rate ([2]; Q.D. 100 mg kg-1, day 17): 100%
- Survival rate ([2]; Q.D. 100 mg kg-1, day 18): 100%
- Survival rate ([2]; Q.D. 100 mg kg-1, day 19): 100%
- Survival rate ([2]; Q.D. 100 mg kg-1, day 20): 100%
- Survival rate ([2]; Q.D. 100 mg kg-1, day 21): 100%
- Survival rate ([2]; Q.D. 100 mg kg-1, day 22): 100%
- Survival rate ([2]; Q.D. 100 mg kg-1, day 23): 100%
- Survival rate ([2]; Q.D. 100 mg kg-1, day 24): 100%
- Survival rate ([2]; Q.D. 100 mg kg-1, day 25): 100%
- Survival rate ([2]; Q.D. 100 mg kg-1, day 26): 100%
- Survival rate ([2]; Q.D. 100 mg kg-1, day 27): 100%
- Survival rate ([2]; Q.D. 100 mg kg-1, day 28): 100%
- Histological score (glomerular lesion), Mean ([2]; Q.D. 100 mg kg-1): 1
- toxic signs in body weights or clinical signs ([2]; both treatment groups): no clear toxic signs
